# Results as given in a melting point compilation (Tetko et al.; mined from patent text by program, amines drawn as free bases though some values may be those of a salt).
# Residues, ends and D or L forms follow the SMILES beside them. *: point of attachment. Cbz = O=C(OCc1ccccc1)*
row,SMILES,melting point
1,COc1ccc(-c2ccsc2)c2c1c(CCN(C)C)cn2C,120 to 122 °C
2,O=C(NCCCNc1c([N+](=O)[O-])cnc2ccccc12)c1ccccc1,209 to 211 °C
3,O=C(Oc1ccc(Oc2ccccc2)cc1)Oc1ccc([N+](=O)[O-])cc1,113 to 115 °C
4,COc1cc(OCc2ccncc2)ccc1/C=C/c1cc(/C=C/c2c[nH]c3ccccc23)n[nH]1,128 to 139 °C
5,COc1ccc(C(C#N)Sc2ccccn2)cc1OC (stereo not drawn),108 to 110 °C
6,CCCc1c(OC2CCCOC2)ccc2c(O)cc(=O)oc12 (stereo not drawn),163 to 165 °C
7,C[C@@H]1Cc2cc3c(cc2C(c2ccc([N+](=O)[O-])cc2)=NN1c1cnns1)OCO3,175 to 176 °C
8,CC(C)COC1OC(CO)C(O)C(O)C1(O)N(C(=O)N(CCCl)N=O)C(C)C (stereo not drawn),83 to 85 °C
9,CCOc1cc(-c2nnc3c4ccccc4c(OCc4nc[nH]n4)nn23)no1,240 to 243 °C
10,CCN(CC)c1ccc(-c2nc(-c3cc(OC)c(O)c(OC)c3)n(C(=O)NS(=O)(=O)c3ccc(C)cc3)c2-c2ccc(N(CC)CC)cc2)cc1,65 °C
11,CCCNC(=O)C(C)Cc1ccc2c(c1)c(Cc1ccc(C(=O)NS(=O)(=O)c3ccccc3C)cc1OC)cn2C (stereo not drawn),103 to 117 °C
12,CN1C2CCC1CN(C(=O)c1ccco1)C2,106 °C
13,Cc1noc(NS(=O)(=O)c2ccsc2NC(=O)Nc2sccc2S(=O)(=O)Nc2onc(C)c2C)c1C,112 to 114 °C
14,N#CNC(=NC1CCN(Cc2ccccc2)CC1)N1CCOCC1,163 to 165 °C
15,O=C(Nc1ccc(Oc2ccc(Br)cc2)nc1)c1ccccc1C(c1ccc(O)cc1)c1ccc(O)cc1,218 to 223 °C
16,COc1cccc(-c2ccc(C3C(CCC(O)c4ccc(F)cc4)C(=O)N3c3ccc(F)cc3)cc2)c1OC (stereo not drawn),101 °C
17,COC(=O)C(Cc1ccc(O)cc1)NC(=O)C(CO)NC(=O)C(Cc1c[nH]c2ccccc12)NC(=O)C(CCC(N)=O)NC(=O)OCc1ccccc1 (stereo not drawn) (Cbz-QWSY-OMe; configuration not given here),238 to 241 °C
18,O=c1cc(-c2ccccc2)nc2ccn(-c3ccccc3)n12,194 to 200 °C
19,CCc1nc2c(N)nc(C)c(C)c2n1CCOCCNC(=O)N1CCOCC1,182 to 184 °C
20,Cc1cc(NCCO)c2nn(-c3ccccc3)c(C)c2n1,159 to 161 °C
21,COC(=O)C1=C(C)NC(C)=C(C(=O)OCCOc2cccc(CCNCC(O)COc3ccc(COCCOC(C)C)cc3)c2)C1c1cccc([N+](=O)[O-])c1 (stereo not drawn),65 to 67 °C
22,CC(=O)Oc1ccc(C=CC(=O)NC23CC4CC(CC(C4)C2)C3)cc1[N+](=O)[O-],179 to 180 °C
23,Cc1nn(C)c2nc(N)[nH]c(=O)c12,> 300 °C
24,CC1=C(C(=O)OCc2ccccc2)C2CCC(CCOC(=O)c3ccc(Br)cc3)N2C(=NC(=O)c2ccc(Br)cc2)N1 (stereo not drawn),175 to 176 °C
25,COc1ccc(C2CNC(=O)C2)cc1C1CCCC1 (stereo not drawn),139 °C

row,SMILES,melting point
1,Cc1cc(-n2nc(C(F)F)cc2-c2ccc(S(C)(=O)=O)cc2)ccc1Cl,145 to 146 °C
2,CCn1nc(OCCCc2ccc(OCCOC(C)C)cc2Oc2ncc(C(F)(F)F)cc2Cl)cc1CCC(=O)O,130 to 132 °C
3,CC(C)(C)c1cc(CCC(=O)NCCNCCNCCNC(=O)CCc2cc(C(C)(C)C)c(O)c(C(C)(C)C)c2)cc(C(C)(C)C)c1O,80 to 110 °C
4,Cc1c(OCC(F)(F)F)ccnc1CSc1nc2ccccc2n1N,134 to 135 °C
5,Cc1cc2ccccn2c1C(=O)c1ccc2c(c1)c(=O)c(C(=O)O)cn2C,308 °C
6,C[C@H](NC1=NS(=O)(=O)c2sc(Cl)cc2N1)c1ccccc1,195 to 204 °C
7,CCN(CC)Cc1nc2cc(OC)c(OC)cc2c(-c2ccc(OC)c(OC)c2)c1C(=O)CC(C)C,153 to 154 °C
8,O=C(Nc1cccc2c1C(=O)c1c-2n[nH]c1-c1ccc(C(=O)NC2CCCNC2)s1)NN1CCOCC1 (stereo not drawn),> 300 °C
9,CCCC[C@]12OC1CC[C@]1(C)CC[C@@H]3C[C@@]12OC3(C)C (stereo partly drawn),70 to 72 °C
10,COc1cc(-c2nc(N(C)CCO)c3c(C)c(C#N)sc3n2)cc(OC)c1OC,164 to 166 °C
11,Cc1nc(N(C)N)[nH]c(=O)c1CCO,180 °C
12,Nc1cc(N)cc(O)c1,168 to 170 °C
13,Oc1ccc(-c2nnc(CSCCOc3ccccc3)o2)cc1,172 to 175 °C
14,OCC1OC(n2cnc3c(NC4CCN(Cc5ccccc5)CC4)ncnc32)C(O)C1O (stereo not drawn),176 to 182 °C
15,Cc1cc(OCc2ccccc2)c2cc(C(=O)N(C)C)[nH]c2c1,205 to 207 °C
16,Nc1ccccc1-c1nc2ccccc2o1,104 to 107 °C
17,CN1CCN(c2cc3c(cc2F)c(=O)c(C(=O)O)cn3NCC=O)CC1,252 to 253 °C
18,CN(C)C=Nc1nc(=O)n(C(=O)OCC(C)(C)C)cc1F,162 to 164 °C
19,Cc1cccc(-c2cc(C(F)(F)F)n3ncc(C#N)c3n2)c1,202 °C
20,C1=c2ccccc2=c2c1c1cnccc1c1c2=Cc2ccccc2-1,225 to 227 °C
21,COC(=O)C[C@H](O)CC(=O)C=Cc1c(-c2ccc(F)cc2)c(-c2ccc(F)cc2)c(C(=O)NCc2cccc(OC)c2)n1C(C)C,104 to 116 °C
22,Cc1cc(NS(=O)(=O)c2ccccc2)cc(C)c1SC[N+](=O)[O-],146 to 148 °C
23,COc1ccccc1CCn1nnnc1-c1ccc2c(c1)C=CC(C)(C)O2,101 to 105 °C
24,CN1C(c2ccc(NS(C)(=O)=O)cc2)NCc2ccccc2C1c1ccccc1 (stereo not drawn),124 to 126 °C

# The remaining lines, values ahead:
row,melting point,SMILES
1,150 to 153 °C,COc1ccc(NC(=O)c2ccc(-c3ccc(-c4noc(C)n4)cc3C)cc2)cc1OCCN
2,100 to 101 °C,CCCCCCCCC(=O)Nc1cc(C)c(O)c(C)c1
3,253 to 254 °C,Cc1c(C(=O)O)c(CC(=O)O)n(C)c1C(=O)c1ccc(Cl)cc1
4,137 to 138 °C,COc1ccc(C(=O)c2cc3cccc(Br)c3o2)cc1OC
5,102 to 103 °C,CCN(CC)CCOC(=O)c1nn(-c2ccc(Cl)cc2)c2c1CCc1ccccc1-2
6,298 to 301 °C,CC(=O)Nc1cccc(-c2nn3cnnc3cc2C)c1
7,221 to 225 °C,CS(=O)(=O)Nc1ccc(NC(=O)C(=O)N2CCC(Cc3ccccc3)CC2)cc1
8,160 to 163 °C,CCCCCC(CC(=O)Nc1cc(C(N)=O)ccc1C(C)(C)C)c1cc(C(N)=O)c(OC)cc1OC (stereo not drawn)
9,121 to 122 °C,COC(=O)Nc1ccc(Br)c(F)c1
10,162 to 163 °C,O=C(O)[C@H](CCCCO)N1C(=O)c2ccccc2C1=O
11,71 to 76 °C,COC(=O)c1ccc(OCCNC(=O)C2Cc3ccccc3N2S(=O)(=O)c2ccc(-c3ccc(F)cc3Cl)cc2)cc1F (stereo not drawn)
12,127 to 128 °C,CC(C)(C)C(=O)CC(Sc1ccccc1)c1ccc(Cl)cc1 (stereo not drawn)
13,224 to 226 °C,Cc1cc(C)n(-c2nc(Nc3ccc(Cl)c(Cl)c3)c3ccccc3n2)n1
14,189 to 190 °C,CNC(=O)c1cc(F)ccc1CNC(=O)c1nc2n(c(=O)c1OCc1ccccc1)CCOC2
15,239 to 241 °C,CC1CNc2c(cnc3cc(Cl)ccc23)O1 (stereo not drawn)
16,188 °C,CCNC(=O)c1ccc(F)c(NC(=O)c2cc(C(C)(C)C)nn2CC)c1
17,165 to 168 °C,CC(CNc1ccc(C(=O)O)cc1)Oc1ccc(Cl)c2ccccc12 (stereo not drawn)
18,112 to 114 °C,COc1cccc(CC(O)C2CCN(CS(N)(=O)=O)CC2)c1OC (stereo not drawn)
19,125 to 127 °C,COc1cc(Cl)ccc1-c1ccc(C(C)=O)cc1
20,210 °C,CCCCn1c(=S)sc2c(=N)n(NC(=O)c3ccco3)cnc21
21,108 to 117 °C,CN(CC(O)[C@H](Cc1ccccc1)NC(=O)c1ccccc1)C(=O)N1CCC[C@H]1C(=O)O (stereo partly drawn)
22,229 to 234 °C,CC(C)Oc1ccc(C(=O)n2nc(Nc3ccc(O)cc3)nc2N)cc1

row,melting point,SMILES
1,90 to 91 °C,CCC(=O)OCOC(=O)Nc1ccc(Cl)cc1
2,189 to 190 °C,CCOC(=O)C(Cc1cccc(OC)c1Oc1ccc([N+](=O)[O-])cc1)(NC(C)=O)C(=O)OCC
3,128 to 130 °C,COc1cccc([C@H]2O[C@H](CC(=O)NC(C)CC(=O)O)C(=O)N(CC(C)(C)C)c3ccc(Cl)cc32)c1OC (stereo partly drawn)
4,206 to 208 °C,COc1ccc(N2CCCN(c3ccnc4sc(C(N)=O)c(N)c34)CC2)cc1
5,95 °C,CCOC(=O)COc1ccc(Oc2ccc3cc(Cl)ccc3n2)cc1
6,266 to 268 °C,Cc1ccc(-c2ccc(Cl)cc2Cl)c(=O)[nH]1
7,38 to 39 °C,CCOC(=O)CCc1ccc(OCCOC)cc1OCc1ccccc1
8,99.5 to 100 °C,COc1ccc(S(=O)(=O)N(C)C)cc1C(=O)NCc1ccc(OCCN(C)C)cc1
9,134 to 135 °C,CC(O)c1ccc2cc(S(N)(=O)=O)sc2c1 (stereo not drawn)
10,182 to 184 °C,NC(=O)c1ncn2c1NCC=C2c1cccc(Cl)c1
11,101 to 103 °C,CCOC(=O)c1ccc(C#CC(O)c2cc(C(C)(C)C)cc(C(C)(C)C)c2OC)cc1 (stereo not drawn)
12,223 to 227 °C,CCOP(=O)(Cc1nnc2c(=O)[nH]c3ccc(Cl)cc3n12)OCC
13,205 to 206 °C,CCCCc1ccc(C(=O)Oc2ccc(C(=O)O)cc2)cc1C12CC3CC(CC(C3)C1)C2
14,169 to 170 °C,CN(C)C(=O)C(c1ccc(N)cc1)C1(O)CCCCC1 (stereo not drawn)
15,125 °C,O=C(O)C1=C(CCl)CS[C@@H]2[C@H](NC(=S)Cc3cc(Cl)ccc3Cl)C(=O)N12
16,147 to 158 °C,Cc1cc(C)c(COc2cccc3c2C(=O)c2c(Cl)ccc4c2c-3nn4CCNCCO)c(C)c1
17,104 to 106 °C,NC(=O)Cc1ccc(CCCOCCCCCCNCC(O)c2cc(Cl)c(N)c(Cl)c2)cc1 (stereo not drawn)
18,114 °C,CCCCOc1ccc(COC(=O)C(=O)OCc2ccc(OCCCC)cc2)cc1
19,171 to 172 °C,CC(C)(C)OC(=O)N1CC(CCl)c2c1ccc1cc(C#N)ccc21 (stereo not drawn)
20,226 °C,CCCc1noc(-c2ccc(N3CCN(C(=O)c4ccccc4C(F)(F)F)CC3)nn2)n1
21,187 to 188 °C,Clc1ccc2c(Nc3ccc(N4CCOCC4)c(CN4CCCC4)c3)ccnc2c1
22,152 to 153 °C,O=C(O)CC1(c2ccccc2)Oc2ccccc2O1
